US20090018134A1, “Compounds - 945” (AstraZeneca AB, priority 2007, published 2009)

Biological target: T1, mTOR (Homo sapiens, UniProt P42345)
T1 construct: FLAG; made in house
Assay: In Vitro mTOR Kinase Assay (Echo), Test (a)(ii)
Format: biochemical
Conditions: read-out: mTOR Kinase Assay (Echo)
Procedure, shortened: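 AlphaScreen read-out: biotinylated substrate phosphorylation was detected with anti-p70 S6K (T389) 1A5 antibody, Protein A acceptor and streptavidin donor beads after overnight dark incubation at room temperature. Enzyme was FLAG-mTOR 1362-2549 from stable HEK293 cells.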

T1 sequence (P42345 1362-2549): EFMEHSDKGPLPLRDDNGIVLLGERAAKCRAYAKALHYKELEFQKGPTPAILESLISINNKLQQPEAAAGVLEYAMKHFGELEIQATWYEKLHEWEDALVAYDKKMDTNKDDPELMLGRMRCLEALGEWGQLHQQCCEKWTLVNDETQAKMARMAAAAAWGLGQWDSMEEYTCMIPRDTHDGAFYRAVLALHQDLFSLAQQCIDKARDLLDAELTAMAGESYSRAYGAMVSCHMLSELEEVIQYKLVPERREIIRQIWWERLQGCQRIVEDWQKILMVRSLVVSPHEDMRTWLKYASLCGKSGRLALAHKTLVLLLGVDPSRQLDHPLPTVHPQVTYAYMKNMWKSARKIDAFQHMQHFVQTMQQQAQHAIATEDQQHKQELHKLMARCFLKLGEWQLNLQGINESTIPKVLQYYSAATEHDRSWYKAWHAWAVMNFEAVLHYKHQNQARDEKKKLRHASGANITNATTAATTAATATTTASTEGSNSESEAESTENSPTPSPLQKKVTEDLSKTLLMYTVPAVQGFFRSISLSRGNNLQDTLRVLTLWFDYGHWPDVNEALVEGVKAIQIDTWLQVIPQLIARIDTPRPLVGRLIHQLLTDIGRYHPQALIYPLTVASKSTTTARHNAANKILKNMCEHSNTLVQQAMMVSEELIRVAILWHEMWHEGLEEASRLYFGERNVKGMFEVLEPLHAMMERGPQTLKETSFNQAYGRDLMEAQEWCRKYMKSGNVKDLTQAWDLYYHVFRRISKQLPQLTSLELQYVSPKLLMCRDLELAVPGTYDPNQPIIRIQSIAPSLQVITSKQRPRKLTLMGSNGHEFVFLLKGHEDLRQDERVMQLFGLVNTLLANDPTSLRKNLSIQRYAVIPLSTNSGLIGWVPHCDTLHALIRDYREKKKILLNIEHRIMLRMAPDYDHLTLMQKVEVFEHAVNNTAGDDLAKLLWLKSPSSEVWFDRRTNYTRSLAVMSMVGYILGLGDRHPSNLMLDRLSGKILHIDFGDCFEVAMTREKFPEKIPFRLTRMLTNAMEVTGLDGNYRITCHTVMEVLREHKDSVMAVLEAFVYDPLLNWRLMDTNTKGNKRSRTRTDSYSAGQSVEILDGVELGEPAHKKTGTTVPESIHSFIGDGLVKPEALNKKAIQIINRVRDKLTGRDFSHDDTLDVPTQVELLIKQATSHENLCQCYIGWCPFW

Structure (SMILES)	IC50
CC(C)NC(=O)Nc1ccc(-c2nc(N3CCOC[C@@H]3C)cc(C3(S(=O)(=O)c4ccccc4C(F)(F)F)CC3)n2)cc1 [Example 10d, 1-[4-[4-[(3S)-3-methylmorpholin-4-yl]-6-[1-[2-(trifluoromethyl)phenyl]sulfonylcyclopropyl]pyrimidin-2-yl]phenyl]-3-propan-2-yl-urea]	43.2 nM
CCNC(=O)Nc1ccc(-c2nc(N3CCOC[C@@H]3C)cc(C3(S(=O)(=O)c4ccccc4C(F)(F)F)CC3)n2)cc1 [Example 10e, 1-ethyl-3-[4-[4-[(3S)-3-methylmorpholin-4-yl]-6-[1-[2-(trifluoromethyl)phenyl]sulfonylcyclopropyl]pyrimidin-2-yl]phenyl]urea]	6.91 nM
C[C@H]1COCCN1c1cc(C2(S(=O)(=O)c3ccccc3C(F)(F)F)CC2)nc(-c2ccc(NC(=O)NCCN(C)C)cc2)n1 [Example 10f, 3-(2-dimethylaminomethyl)-1-[4-[4-[(3S)-3-methylmorpholin-4-yl]-6-[1-[2-(trifluoromethyl)phenyl]sulfonylcyclopropyl]pyrimidin-2-yl]phenyl]urea]	174 nM
CCCNC(=O)Nc1ccc(-c2nc(N3CCOC[C@@H]3C)cc(C3(S(=O)(=O)c4ccccc4C(F)(F)F)CC3)n2)cc1 [Example 10h, 3-[4-[4-[(3S)-3-methylmorpholin-4-yl]-6-[1-[2-(trifluoromethyl)phenyl]sulfonylcyclopropyl]pyrimidin-2-yl]phenyl]-1-propyl-urea]	26.8 nM
CNC(=O)Nc1ccc(-c2nc(N3CCOC[C@@H]3C)cc(C3(S(=O)(=O)c4ccccc4C(F)(F)F)CC3)n2)cc1 [Example 10i, 3-methyl-1-[4-[4-[(3S)-3-methylmorpholin-4-yl]-6-[1-[2-(trifluoromethyl)phenyl]sulfonylcyclopropyl]pyrimidin-2-yl]phenyl]urea]	5.91 nM
C[C@H]1COCCN1c1cc(C2(S(=O)(=O)c3ccccc3C(F)(F)F)CC2)nc(-c2ccc(NC(=O)Nc3ccc(C(F)(F)F)cc3)cc2)n1 [Example 10j, 1-[4-[4-[(3S)-3-methylmorpholin-4-yl]-6-[1-[2-(trifluoromethyl)phenyl]sulfonylcyclopropyl]pyrimidin-2-yl]phenyl]-3-[4-(trifluoromethyl)phenyl]urea]	110 nM
C[C@H]1COCCN1c1cc(C2(S(=O)(=O)c3ccccc3C(F)(F)F)CC2)nc(-c2ccc(NC(=O)NC(C)(C)CO)cc2)n1 [Example 10k, 3-(1-hydroxy-2-methyl-propan-2-yl)-1-[4-[4-[(3S)-3-methylmorpholin-4-yl]-6-[1-[2-(trifluoromethyl)phenyl]sulfonylcyclopropyl]pyrimidin-2-yl]phenyl]urea]	50.2 nM
C[C@H]1COCCN1c1cc(C2(S(=O)(=O)c3ccccc3C(F)(F)F)CC2)nc(-c2ccc(NC(=O)NCCCO)cc2)n1 [Example 10l, 3-(3-hydroxypropyl)-1-[4-[4-[(3S)-3-methylmorpholin-4-yl]-6-[1-[2-(trifluoromethyl)phenyl]sulfonylcyclopropyl]pyrimidin-2-yl]phenyl]urea]	18.3 nM
C[C@H]1COCCN1c1cc(C2(S(=O)(=O)c3ccccc3C(F)(F)F)CC2)nc(-c2ccc(NC(=O)Nc3cnn(C)c3)cc2)n1 [Example 10m, 1-[4-[4-[(3S)-3-methylmorpholin-4-yl]-6-[1-[2-(trifluoromethyl)phenyl]sulfonylcyclopropyl]pyrimidin-2-yl]phenyl]-3-(1-methylpyrazol-4-yl)urea]	4.97 nM
CCS(=O)(=O)C1(c2cc(N3CCOC[C@@H]3C)nc(-c3ccc(NC(=O)NC(C)C)cc3)n2)CC1 [Example 11c, 1-[4-[4-(1-ethylsulfonylcyclopropyl)-6-[(3S)-3-methylmorpholin-4-yl]pyrimidin-2-yl]phenyl]-3-propan-2-yl-urea]	24.7 nM
CCS(=O)(=O)C1(c2cc(N3CCOC[C@@H]3C)nc(-c3ccc(NC(=O)NC4CCC4)cc3)n2)CC1 [Example 11d, 3-cyclobutyl-1-[4-[4-(1-ethylsulfonylcyclopropyl)-6-[(3S)-3-methylmorpholin-4-yl]pyrimidin-2-yl]phenyl]urea]	6.42 nM
CCS(=O)(=O)C1(c2cc(N3CCOC[C@@H]3C)nc(-c3ccc(NC(=O)NCCN(C)C)cc3)n2)CC1 [Example 11g, 3-(2-dimethylaminomethyl)-1-[4-[4-(1-ethylsulfonylcyclopropyl)-6-[(3S)-3-methylmorpholin-4-yl]pyrimidin-2-yl]phenyl]urea]	313 nM
CCCNC(=O)Nc1ccc(-c2nc(N3CCOC[C@@H]3C)cc(C3(S(=O)(=O)CC)CC3)n2)cc1 [Example 11h, 3-[4-[4-(1-ethylsulfonylcyclopropyl)-6-[(3S)-3-methylmorpholin-4-yl]pyrimidin-2-yl]phenyl]-1-propyl-urea]	9.13 nM
CCS(=O)(=O)C1(c2cc(N3CCOC[C@@H]3C)nc(-c3ccc(NC(=O)NCC(C)C)cc3)n2)CC1 [Example 11i, 1-[4-[4-(1-ethylsulfonylcyclopropyl)-6-[(3S)-3-methylmorpholin-4-yl]pyrimidin-2-yl]phenyl]-3-(2-methylpropyl)urea]	29.4 nM
CCS(=O)(=O)C1(c2cc(N3CCOC[C@@H]3C)nc(-c3ccc(NC(=O)NCCCO)cc3)n2)CC1 [Example 11j, 1-[4-[4-(1-ethylsulfonylcyclopropyl)-6-[(3S)-3-methylmorpholin-4-yl]pyrimidin-2-yl]phenyl]-3-(3-hydroxypropyl)urea]	12.2 nM
CC(C)(CO)NC(=O)Nc1ccc(-c2nc(N3CCOCC3)cc(C3(S(C)(=O)=O)CC3)n2)cc1 [Example 12e, 3-(1-hydroxy-2-methylpropan-2-yl)-1-[4-[4-(1-methylsulfonylcyclopropyl)-6-morpholin-4-ylpyrimidin-2-yl]phenyl]urea]	4.59 nM

Now those with a lower IC50, led by results:

IC50	Structure (SMILES)
4.37 nM	CCS(=O)(=O)C1(c2cc(N3CCOC[C@@H]3C)nc(-c3ccc(NC(=O)Nc4cnn(C)c4)cc3)n2)CC1 [Example 11m, 1-[4-[4-(1-ethylsulfonylcyclopropyl)-6-[(3S)-3-methylmorpholin-4-yl]pyrimidin-2-yl]phenyl]-3-(1-methylpyrazol-4-yl)urea]
4.21 nM	CS(=O)(=O)C1(c2cc(N3CCOCC3)nc(-c3ccc(NC(=O)NC4CC4)cc3)n2)CC1 [Example 12, 3-Cyclopropyl-1-[4-[4-(1-methylsulfonylcyclopropyl)-6-morpholin-4-ylpyrimidin-2-yl]phenyl]urea]
4.18 nM	CCS(=O)(=O)C1(c2cc(N3CCOC[C@@H]3C)nc(-c3ccc(NC(=O)NC)cc3)n2)CC1 [Example 11a, 1-[4-[4-(1-ethylsulfonylcyclopropyl)-6-[(3S)-3-methylmorpholin-4-yl]pyrimidin-2-yl]phenyl]-3-methyl-urea]
3.56 nM	CCS(=O)(=O)C1(c2cc(N3CCOC[C@@H]3C)nc(-c3ccc(NC(=O)Nc4ccccn4)cc3)n2)CC1 [Example 11l, 1-[4-[4-(1-ethylsulfonylcyclopropyl)-6-[(3S)-3-methylmorpholin-4-yl]pyrimidin-2-yl]phenyl]-3-pyridin-2-yl-urea]
3.37 nM	CCS(=O)(=O)C1(c2cc(N3CCOC[C@@H]3C)nc(-c3ccc(NC(=O)NC(C)(C)CO)cc3)n2)CC1 [Example 11f, 1-[4-[4-(1-ethylsulfonylcyclopropyl)-6-[(3S)-3-methylmorpholin-4-yl]pyrimidin-2-yl]phenyl]-3-(1-hydroxy-2-methyl-propan-2-yl)urea]
3.33 nM	CCNC(=O)Nc1ccc(-c2nc(N3CCOC[C@@H]3C)cc(C3(S(=O)(=O)CC)CC3)n2)cc1 [Example 11b, 1-ethyl-3-[4-[4-(1-ethylsulfonylcyclopropyl)-6-[(3S)-3-methylmorpholin-4-yl]pyrimidin-2-yl]phenyl]urea]
3.32 nM	CCS(=O)(=O)C1(c2cc(N3CCOC[C@@H]3C)nc(-c3ccc(NC(=O)Nc4ccc(C(F)(F)F)cc4)cc3)n2)CC1 [Example 11k, 1-[4-[4-(1-ethylsulfonylcyclopropyl)-6-[(3S)-3-methylmorpholin-4-yl]pyrimidin-2-yl]phenyl]-3-[4-(trifluoromethyl)phenyl]urea]
2.71 nM	CCNC(=O)Nc1ccc(-c2nc(N3CCOCC3)cc(C3(S(C)(=O)=O)CC3)n2)cc1 [Example 12b, 3-ethyl-1-[4-[4-(1-methylsulfonylcyclopropyl)-6-morpholin-4-ylpyrimidin-2-yl]phenyl]urea]
1.67 nM	CNC(=O)Nc1ccc(-c2nc(N3CCOCC3)cc(C3(S(C)(=O)=O)CC3)n2)cc1 [Example 12a, 3-methyl-1-[4-[4-(1-methylsulfonylcyclopropyl)-6-morpholin-4-ylpyrimidin-2-yl]phenyl]urea]
1.65 nM	CCS(=O)(=O)C1(c2cc(N3CCOC[C@@H]3C)nc(-c3ccc(NC(=O)NC4CC4)cc3)n2)CC1 [Example 11, 3-Cyclopropyl-1-[4-[4-(1-ethylsulfonylcyclopropyl)-6-[(3S)-3-methylmorpholin-4-yl]pyrimidin-2-yl]phenyl]urea]
1.56 nM	C[C@H]1COCCN1c1cc(C2(S(=O)(=O)c3ccccc3C(F)(F)F)CC2)nc(-c2ccc(NC(=O)NCCO)cc2)n1 [Example 10g]
1.55 nM	CS(=O)(=O)C1(c2cc(N3CCOCC3)nc(-c3ccc(NC(=O)NCCO)cc3)n2)CC1 [Example 12d, 3-(2-hydroxyethyl)-1-[4-[4-(1-methylsulfonylcyclopropyl)-6-morpholin-4-ylpyrimidin-2-yl]phenyl]urea]
1.52 nM	CS(=O)(=O)C1(c2cc(N3CCOCC3)nc(-c3ccc(NC(=O)NC4CCC4)cc3)n2)CC1 [Example 12c, 3-cyclobutyl-1-[4-[4-(1-methylsulfonylcyclopropyl)-6-morpholin-4-ylpyrimidin-2-yl]phenyl]urea]
1.35 nM	CCS(=O)(=O)C1(c2cc(N3CCOC[C@@H]3C)nc(-c3ccc(NC(=O)NCCO)cc3)n2)CC1 [Example 11e, 1-[4-[4-(1-ethylsulfonylcyclopropyl)-6-[(3S)-3-methylmorpholin-4-yl]pyrimidin-2-yl]phenyl]-3-(2-hydroxyethyl)urea]

Same assay, conditions: table of enzyme assay Test (a)(ii); read-out: Test (a)(ii) IC50

Structure (SMILES)	IC50
CCS(=O)(=O)C1(c2cc(N3CCOC[C@@H]3C)nc(-c3ccc(NC(=O)NC)cc3)n2)CC1 [Example 11a, 1-[4-[4-(1-ethylsulfonylcyclopropyl)-6-[(3S)-3-methylmorpholin-4-yl]pyrimidin-2-yl]phenyl]-3-methyl-urea]	5.9 nM
CCS(=O)(=O)C1(c2cc(N3CCOC[C@@H]3C)nc(-c3ccc(NC(=O)NCCO)cc3)n2)CC1 [Example 11e, 1-[4-[4-(1-ethylsulfonylcyclopropyl)-6-[(3S)-3-methylmorpholin-4-yl]pyrimidin-2-yl]phenyl]-3-(2-hydroxyethyl)urea]	1.97 nM
CS(=O)(=O)C1(c2cc(N3CCOCC3)nc(-c3ccc(NC(=O)NC4CCC4)cc3)n2)CC1 [Example 12c, 3-cyclobutyl-1-[4-[4-(1-methylsulfonylcyclopropyl)-6-morpholin-4-ylpyrimidin-2-yl]phenyl]urea]	7.51 nM
